Test: Case reports: glutamate modulating agent added to medication of patients with borderline personality disorder and self-injurious behavior
Format: in vivo, human
From the text: We describe two patients with borderline personality disorder and prominent cutting behaviors refractory to psychopharmacologic interventions.
Patient 1 was a person with a history of post-traumatic stress disorder and borderline personality disorder. […] They were previously treated with intensive psychotherapy, cognitive behavioral therapy, and pharmacotherapy. Medication management included treatment trials, either alone or in combination, of the following medications: CELEXA (citraloprom HBr), PROZAC (fluoxetine HCl), REMERON (mirtazapine), ZYPREXA (olanzapine), KLONOPIN (clonazepam), LAMICTAL (lamotrigine), RISPERDAL (risperidone), Abilify (aripiprazole), EFFEXOR (venlafaxine HCl), XANAX (alprazolam), WELLBUTRIN (bubroprion HCl), and ATIVAN (lorazepam). Medications provided little relief and their cutting behaviors continued on a daily to weekly basis. Riluzole, a glutamate modulating agent, was added to their medication regimen which consisted of LEXAPRO (escitalopram) 20 mg a day and KLONOPIN 1 mg at bedtime. Riluzole was dosed at 50 mg twice a day. […] This attenuation in their self-injurious behaviors occurred between week 2 and 3 of treatment with riluzole.
Despite the beneficial effects of riluzole with regard to the cutting/self-injurious behaviors (as well as cravings to cut), Patient 1 requested to stop the riluzole secondary to the sedation. Within 1 week of stopping the riluzole, their desire and cravings to cut returned. They were then treated with N-Acetyl Cysteine (NAC), another agent thought to modulate glutamatergic function.
Patient 2 was a person with a long history of borderline personality disorder, major depression, obsessive-compulsive disorder and generalized anxiety disorder. […] These self-injurious behaviors and the cravings to cut worsened under times of stress. They were previously treated with intensive psychotherapy, cognitive behavioral therapy, and pharmacotherapy. Medication management included treatment trials, either alone or in combination, of the following medications: EFFEXOR, ZOLOFT (sertaline HCl), TOPAMAX (topirimate), ATIVAN (lorazepam), trazodone, ABILIFY AND NEURONTIN (gabapentin). Riluzole, a glutamate modulating agent, was added to their medication regimen which consisted of ZOLOFT 200 mg each day, RISPERDAL (risperidone) 2 mg at bedtime, KLONOPIN 1 mg three times per day and PROVIGIL (modafinil) 200 mg a day. Riluzole was dosed at 50 mg twice a day. […] Similar to the first case, the cessation in self-injurious behaviors occurred between week 2 and 3 of treatment with riluzole.

[1] = Patient 1, riluzole 50 mg twice a day

With CC(=O)N[C@@H](CS)C(=O)O [NAC, N-Acetyl Cysteine] the “time of treatment until desire to cut remitted” value (Patient 1, NAC after stopping riluzole) was no more than 2 weeks, the “period without any self-injurious behaviors” value (Patient 1, on NAC) was “over three months” and the “self-injurious cravings (self-report)” value (Patient 1, on NAC, desire to cut not completely eradicated as while on riluzole) was “significantly attenuated”.

In the case of Nc1nc2ccc(OC(F)(F)F)cc2s1 [riluzole, Riluzole], the “time after stopping treatment until desire and cravings to cut returned” value (Patient 1, after stopping riluzole) is reported as no more than 1 week, the “adverse effect while on treatment” value [1] is reported as “significant sedation” and the “time on treatment without a single episode or desire to harm themself” value [1] is reported as “approximately eight weeks”. The “cravings to cut / self-injurious behaviors (patient report)” value (Patient 1, riluzole 50 mg twice a day added to LEXAPRO 20 mg a day and KLONOPIN 1 mg at bedtime) was “complete cessation of cravings to cut”, the “period without any self-injurious behaviors” value (Patient 2, riluzole 50 mg twice a day) was “over six months” and the “desire to engage in self-injurious behaviors (patient report)” value (Patient 2, riluzole 50 mg twice a day added to ZOLOFT 200 mg, RISPERDAL 2 mg, KLONOPIN 1 mg three times per day, PROVIGIL 200 mg) was “complete cessation”. The self-injurious behavior (both cases (two patients with borderline personality disorder and cutting behaviors refractory to psychopharmacologic interventions), after initiating riluzole) was “significantly decreased”.

Source: patent US20060167068A1, “Method of treating self-injurious behavior with glutamate modulating agents” (priority 2005, published 2006)
